Source: US20040162422A1, “Chemical compounds” (priority 2001, published 2004)

Assays:
[1] = target: T1, human adenosine A1 receptors (Homo sapiens, UniProt P30542); assay: Reporter gene experiments in yeast (agonist activity, β-galactosidase/FDG readout); format: cell-based; set-up: key: equipotent concentration ratio relative to NECA = 1; details: ECR = equipotent concentration ratio relative to NECA = 1; agonist potency, yeast reporter gene assay
T1 construct: expressed in transfected cells
T1 sequence (P30542 1-326): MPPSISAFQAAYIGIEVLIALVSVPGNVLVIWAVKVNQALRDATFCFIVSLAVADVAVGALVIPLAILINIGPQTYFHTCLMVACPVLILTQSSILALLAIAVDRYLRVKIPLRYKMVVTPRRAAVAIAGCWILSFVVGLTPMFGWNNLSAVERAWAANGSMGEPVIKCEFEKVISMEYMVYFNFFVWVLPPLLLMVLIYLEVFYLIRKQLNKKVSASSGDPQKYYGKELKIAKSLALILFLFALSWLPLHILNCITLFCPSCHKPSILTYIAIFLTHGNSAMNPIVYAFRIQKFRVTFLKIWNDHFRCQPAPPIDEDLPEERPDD
Protocol: Reporter Gene Experiments in Yeast
Agonist activity at human adenosine A1 receptors was measured in yeast cell lines expressing the adenosine A1 receptor together with a chimeric G-protein which linked receptor stimulation to the expression of the enzyme β-galactosidase. Cells were plated out in 96-well plates in culture medium to which was added 2 mM 3-AT (3-aminotriazole) to limit basal growth in the absence of agonist stimulation, and FDG (fluorescein di-β-D-galactopyranoside) as substrate for β-galactosidase, which converts FDG to fluorescein. For measurement of potency, agonists were added to the appropriate wells at a concentration range of approximately 10^−10-10^−5M and incubated at 30° C. for 18 hours. At this point the amount of fluorescein generated was measured in a spectrophotometer. From these readings, the concentration-dependence of the stimulation by the agonist can be calculated. One of the agonists tested on each 96-well plate was the standard non-selective agonist, N-ethylcarboxamidoadenosine (NECA), and the potency of all test agonists is expressed relative to that of the NECA standard.
(ECR=equipotent concentration ratio relative to NECA=1)

[2] = target: T2, human adenosine A3 receptors (Homo sapiens, UniProt P0DMS8); assay: Reporter gene experiments in CHO cells (CRE/SPAP, inhibition of forskolin-stimulated SPAP production); format: cell-based; details: ECR = equipotent concentration ratio relative to NECA = 1; agonist potency, CHO CRE/SPAP reporter gene assay
T2 construct: expressed in transfected cells; host or cells: Chinese hamster ovary (CHO) cells with CRE/SPAP/HYG reporter
T2 sequence (P0DMS8 1-318): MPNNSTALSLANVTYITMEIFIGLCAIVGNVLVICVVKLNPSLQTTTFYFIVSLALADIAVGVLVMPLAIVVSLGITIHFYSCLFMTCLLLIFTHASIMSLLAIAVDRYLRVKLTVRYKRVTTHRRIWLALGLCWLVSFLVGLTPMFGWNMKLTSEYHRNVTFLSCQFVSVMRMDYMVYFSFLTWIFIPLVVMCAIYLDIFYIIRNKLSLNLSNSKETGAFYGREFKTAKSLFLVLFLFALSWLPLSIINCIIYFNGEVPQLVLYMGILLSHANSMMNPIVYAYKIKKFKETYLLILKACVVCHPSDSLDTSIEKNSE
From the text: The compounds useful in the invention are agonists at the adenosine A1 receptor. Preferably they are selective agonists at the adenosine A1 receptor. By selective is meant that the affinity for the A1 receptor is at least 2 times, preferably 5 times and more preferably 10 times greater than the other adenosine receptor subtypes, particularly A3. Agonist selectivity of compounds against other human adenosine receptors can be determined using Chinese hamster ovary (CHO) cells transfected with the gene for the relevant human adenosine receptor following a method based on that of Castanon, K V. and Spevak, W. (1994) Biochem. Biophys. Res. Commun. 198, 626-631. The CHO cells are also transfected with cyclic AMP response elements promoting the gene for secreted placental alkaline phosphatase (SPAP) (Wood, K V. (1995) Cuff. Opinion. Biotechnology, 6, 50-58). The effect of test compounds is determined by their effects on basal levels of cAMP (A2a) or on forskolin-enhanced cAMP (A1 and A3) as reflected by changes in levels of SPAP. EC50 values for compounds are determined as a ratio to that of the non-selective agonist N-ethyl carboxamidoadenosine (NECA). “Adenosine receptors: New opportunities for future drugs” (S. A. Poulsen et al, Bioorg. Med. Chem,. 1998, 6, 619-641) summarises disease conditions that may be treated with adenosine A1 agonists.
Reporter Gene Experiments in CHO cells
Agonist activity at human adenosine A3 receptors was measured in Chinese hamster ovary (CHO) cells containing the CRE/SPAP/HYG (CRE=cyclic AMP response element; HYG=hygromycin resistance; SPAP=secreted placental alkaline phosphatase) reporter gene elements, which upon stimulation of cAMP levels produced SPAP. A cell line was used which was stably transfected with the human adenosine A3 receptor in addition to the above elements. Cells were plated out in 96-well plates in culture medium and incubated at 37° C. for 1 hour. For measurement of potency, agonists were added to the appropriate wells at a concentration range of approximately 10^−10-10^−5M. 15 Min later, cAMP levels were stimulated by addition of a maximal concentration of forskolin. All cells were then incubated for a further 5 hours at 37° C., and cooled to room temperature, after which a substrate for the phosphatase (para-nitrophenol phosphate, pNPP), which is converted by SPAP to a coloured reagent) was then added and the 96-well plates were read in a plate reader. From these readings, the concentration-dependence of the inhibition by the agonist for forskolin-stimulated SPAP production can be calculated. As with the yeast assays, one of the agonists tested on each 96-well plate was the standard non-selective agonist, N-ethylcarboxamidoadenosine (NECA), and the potency of all test agonists is expressed relative to that of the NECA standard.

SMILES	Adenosine A1 receptor ECR* [1]	Adenosine A3 receptor ECR* [2]
C#C[C@H]1O[C@@H](n2cnc3c(N[C@@H]4CCC[C@]4(OC)c4ccccc4)ncnc32)[C@H](O)[C@@H]1O (relative stereo) [Example 9, (2R,3R,4S,6R)-5-Ethynyl-2-(6-{[(1R*,2S*)-2-methoxy-2-phenylcyclopentyl]amino}-9H-purin-9-yl)tetrahydrofuran-3,4-diol]	23.81	>165
C#C[C@H]1O[C@@H](n2cnc3c(NCCS(=O)(=O)NCC)ncnc32)[C@H](O)[C@@H]1O [Example 1, N-Ethyl-2-({9-[(2R,3R,4S,5R)-5-ethynyl-3,4-dihydroxytetrahydrofuran-2-yl]-9H-purin-6-yl}amino)ethanesulfonamide]	9.95	>1070
C#C[C@H]1O[C@@H](n2cnc3c(NC4CCN(C(=O)OCC)CC4)ncnc32)[C@H](O)[C@@H]1O [Example 2, Ethyl 4-({9-[(2R,3R,4S,5R)-5-ethynyl-3,4-dihydroxytetrahydrofuran-2-yl]-9H-purin-6-yl}amino)piperidine-1-carboxylate]	10	>3580
C#C[C@H]1O[C@@H](n2cnc3c(N[C@H]4CCC[C@@H]4O)ncnc32)[C@H](O)[C@@H]1O [Example 3, (2R,3R,4S,5R)-5-Ethynyl-2-(6-{[(1S,2S)-2-hydroxycyclopentyl]amino}-9H-purin-9-yl)tetrahydrofuran-3,4-diol]	6.48	>823
C#C[C@H]1O[C@@H](n2cnc3c(NC4Cc5ccccc5C4)ncnc32)[C@H](O)[C@@H]1O [Example 4, (2R,3R,4S,5R)-2-[6-(2,3-Dihydro-1H-inden-2-ylamino)-9H-purin-9-yl]-5-ethynyltetrahydrofuran-3,4-diol]	27.96	>407
C#C[C@H]1O[C@@H](n2cnc3c(NCCc4ccccc4)ncnc32)[C@H](O)[C@@H]1O [Example 6, (2R,3R,4S,5R)-5-ethynyl-2-{6-[(2-phenylethyl)amino]-9H-purin-9-yl}tetrahydrofuran-3,4-diol]	24.6	>1059
C#C[C@H]1O[C@@H](n2cnc3c(NC4CCCCC4)ncnc32)[C@H](O)[C@@H]1O [Example 7, (2R,3R,4S,5R)-2-[6-(Cyclohexylamino)-9H-purin-9-yl]-5-ethynyltetrahydrofuran-3,4-diol]	11.4	>178
C#C[C@H]1O[C@@H](n2cnc3c(N[C@H]4[C@H]5CC[C@H](C5)[C@@H]4C)ncnc32)[C@H](O)[C@@H]1O [Example 8, (2R,3R,4S,5R)-5-Ethynyl-2-(6-{[(1S,2S,3S,4R)-3-methylbicyclo[2.2.1]hept-2-yl]amino}-9H-purin-9-yl)tetrahydrofuran-3,4-diol]	7.94	>178
C#C[C@H]1O[C@@H](n2cnc3c(NC4CC4)ncnc32)[C@H](O)[C@@H]1O [Example 10, (2R,3R,4S,5R)-2-[6-(Cyclopropylamino)-9H-purin-9-yl]-5-ethynyltetrahydrofuran-3,4-diol]	6.89	>1066

Next, values leading:

Adenosine A1 receptor ECR* [1]	Adenosine A3 receptor ECR* [2]	SMILES
2.88	>416	C#C[C@H]1O[C@@H](n2cnc3c(N[C@H]4C[C@H]5CCC[C@H]54)ncnc32)[C@H](O)[C@@H]1O (relative stereo) [Example 17, (2R,3R,4S,5R)-2-{6-[(1R*,5R*,6S*)-Bicyclo[3.2.0]hept-6-ylamino]-9H-purin-9-yl}-5-ethynyltetrahydrofuran-3,4-diol]
5	>210	C#C[C@H]1O[C@@H](n2cnc3c(NCC4CC4)ncnc32)[C@H](O)[C@@H]1O [Example 11, (2R,3R,4S,5R)-2-{6-[(Cyclopropylmethyl)amino]-9H-purin-9-yl}-5-ethynyltetrahydrofuran-3,4-diol]
4.47	>80.2	C#C[C@H]1O[C@@H](n2cnc3c(NC4CCCC4)ncnc32)[C@H](O)[C@@H]1O [Example 12]
18.86	>386	C#C[C@H]1O[C@@H](n2cnc3c(N[C@@H]4CCO[C@@H]4C)ncnc32)[C@H](O)[C@@H]1O [Example 13, (2R,3R,4S,5R)-5-Ethynyl-2-(6-{[(2R,3R)-2-methyltetrahydrofuran-3-yl]amino}-9H-purin-9-yl)tetrahydrofuran-3,4-diol]
14.86	>502	C#C[C@H]1O[C@@H](n2cnc3c(N[C@H]4CCO[C@H]4C)ncnc32)[C@H](O)[C@@H]1O [Example 14, (2R,3R,4S,5R)-5-Ethynyl-2-(6-{[(2S,3S)-2-methyltetrahydrofuran-3-yl]amino}-9H-purin-9-yl)tetrahydrofuran-3,4-diol]
6.81	>3208	C#C[C@H]1O[C@@H](n2cnc3c(NC4CC4(C)C)ncnc32)[C@H](O)[C@@H]1O (stereo partly drawn) [Example 18, (2R,3R,4S,5R)-2-{6-[(2,2-Dimethylcyclopropyl)amino]-9H-purin-9-yl}-5-ethynyltetrahydrofuran-3,4-diol]
7.94	>1070	C#C[C@H]1O[C@@H](n2cnc3c(Nc4ccc(F)cc4F)ncnc32)[C@H](O)[C@@H]1O [Example 32, (2R,3R,4S,5R)-2-{6-[(2,4-Difluorophenyl)amino]-9H-purin-9-yl}-5-ethynyltetrahydrofuran-3,4-diol]
26.31	>215	C#C[C@H]1O[C@@H](n2cnc3c(Nc4ccc(Cl)cc4F)ncnc32)[C@H](O)[C@@H]1O [Example 33, (2R,3R,4S,5R)-2-{6-[(4-Chloro-2-fluorophenyl)amino]-9H-purin-9-yl}-5-ethynyltetrahydrofuran-3,4-diol]
6.48	>974	C#C[C@H]1O[C@@H](n2cnc3c(Nc4ccc(F)cc4Cl)ncnc32)[C@H](O)[C@@H]1O [Example 35, (2R,3R,4S,5R)-2-{6-[(2-chloro-4-fluorophenyl)amino]-9H-purin-9-yl}-5-ethynyltetrahydrofuran-3,4-diol]
7.15	>1117	C#C[C@H]1O[C@@H](n2cnc3c(Nc4ccc(F)cc4C)ncnc32)[C@H](O)[C@@H]1O [Example 36, (2R,3R,4S,5R)-5-Ethynyl-2-{6-[(4-fluoro-2-methylphenyl)amino]-9H-purin-9-yl}tetrahydrofuran-3,4-diol]
